System: MCF7 complex spheroid growth, % test/control
Assay: Anticancer human tumor MCF7 cell line growth inhibition [Asc];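 further: spheroids exposed to compounds for 7 days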;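 on viability, T/C: 100% = DMSO vehicle control wells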
Settings: for IC50: curve of first compound; for viability, T/C: stronger effect = lower value
How it was run: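 Tumor cells were grown as complex spheroids with human endothelial cells (HUVEC) and human mesenchymal stem cells as stroma. Agents were tested alone and in combination, in half-log steps down from the clinical Cmax, or from 10 microM where Cmax was unknown.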

[1] = second compound 0.00949 µM, first compound 0.00316 µM
[2] = second compound 0.00949 µM, first compound 0.01 µM
[3] = second compound 0.00949 µM, first compound 0.0316 µM
[4] = second compound 0.00949 µM, first compound 0.1 µM
[5] = second compound 0.03 µM, first compound 0.00316 µM
[6] = second compound 0.03 µM, first compound 0.01 µM
[7] = second compound 0.03 µM, first compound 0.0316 µM
[8] = second compound 0.03 µM, first compound 0.1 µM
[9] = second compound 0.0949 µM, first compound 0.00316 µM
[10] = second compound 0.0949 µM, first compound 0.01 µM
[11] = second compound 0.0949 µM, first compound 0.0316 µM
[12] = second compound 0.0949 µM, first compound 0.1 µM
[13] = second compound 0.3 µM, first compound 0.00316 µM
[14] = second compound 0.3 µM, first compound 0.01 µM
[15] = second compound 0.3 µM, first compound 0.0316 µM
[16] = second compound 0.3 µM, first compound 0.1 µM
[17] = second compound 0.949 µM, first compound 0.00316 µM
[18] = second compound 0.949 µM, first compound 0.01 µM
[19] = second compound 0.949 µM, first compound 0.0316 µM
[20] = second compound 0.949 µM, first compound 0.1 µM
[21] = second compound 3 µM, first compound 0.00316 µM
[22] = second compound 3 µM, first compound 0.01 µM
[23] = second compound 3 µM, first compound 0.0316 µM
[24] = second compound 3 µM, first compound 0.1 µM

Cc1nc(N2CCC3(CC2)COC(C)C3N)c(CO)nc1Sc1ccnc(N)c1Cl (stereo unspecified) + CCN1C(C(=O)NC23CCC(C(=O)O)(CC2)CC3)C(c2cccc(Cl)c2F)C2(C(=O)Nc3cc(Cl)ccc32)C12CCCCC2
IC50 (second compound 0.00949 µM): 1380 nM
IC50 (second compound 0.03 µM): 493 nM
IC50 (second compound 0.0949 µM): < 9.49 nM
IC50 (second compound 0.3 µM): < 9.49 nM
IC50 (second compound 0.949 µM): < 9.49 nM
IC50 (second compound 3 µM): < 9.49 nM
viability, T/C (second compound 0.00949 µM, first compound 0.00949 µM): 109%
viability, T/C (second compound 0.00949 µM, first compound 0.03 µM): 115%
viability, T/C (second compound 0.00949 µM, first compound 0.0949 µM): 94.4%
viability, T/C (second compound 0.00949 µM, first compound 0.3 µM): 99.9%
viability, T/C (second compound 0.00949 µM, first compound 0.949 µM): 66.8%
viability, T/C (second compound 0.00949 µM, first compound 3 µM): 12.5%
viability, T/C (second compound 0.03 µM, first compound 0.00949 µM): 86.4%
viability, T/C (second compound 0.03 µM, first compound 0.03 µM): 79.1%
viability, T/C (second compound 0.03 µM, first compound 0.0949 µM): 88.5%
viability, T/C (second compound 0.03 µM, first compound 0.3 µM): 77.3%
viability, T/C (second compound 0.03 µM, first compound 0.949 µM): 14%
viability, T/C (second compound 0.03 µM, first compound 3 µM): 11.1%
viability, T/C (second compound 0.0949 µM, first compound 0.00949 µM): 50.3%
viability, T/C (second compound 0.0949 µM, first compound 0.03 µM): 41.9%
viability, T/C (second compound 0.0949 µM, first compound 0.0949 µM): 43.7%
viability, T/C (second compound 0.0949 µM, first compound 0.3 µM): 29.9%
viability, T/C (second compound 0.0949 µM, first compound 0.949 µM): 9.42%
viability, T/C (second compound 0.0949 µM, first compound 3 µM): 10.3%
viability, T/C (second compound 0.3 µM, first compound 0.00949 µM): 26%
viability, T/C (second compound 0.3 µM, first compound 0.03 µM): 22.8%
viability, T/C (second compound 0.3 µM, first compound 0.0949 µM): 20.8%
viability, T/C (second compound 0.3 µM, first compound 0.3 µM): 18.5%
viability, T/C (second compound 0.3 µM, first compound 0.949 µM): 5.2%
viability, T/C (second compound 0.3 µM, first compound 3 µM): 7.09%
viability, T/C (second compound 0.949 µM, first compound 0.00949 µM): 13.7%
viability, T/C (second compound 0.949 µM, first compound 0.03 µM): 13.6%
viability, T/C (second compound 0.949 µM, first compound 0.0949 µM): 12.8%
viability, T/C (second compound 0.949 µM, first compound 0.3 µM): 6.58%
viability, T/C (second compound 0.949 µM, first compound 0.949 µM): 5.44%
viability, T/C (second compound 0.949 µM, first compound 3 µM): 5.91%
viability, T/C (second compound 3 µM, first compound 0.00949 µM): 11.4%
viability, T/C (second compound 3 µM, first compound 0.03 µM): 8.37%
viability, T/C (second compound 3 µM, first compound 0.0949 µM): 10.1%
viability, T/C (second compound 3 µM, first compound 0.3 µM): 6.66%
viability, T/C (second compound 3 µM, first compound 0.949 µM): 6.63%
viability, T/C (second compound 3 µM, first compound 3 µM): 11.7%

Cn1ncnc1[C@H]1c2n[nH]c(=O)c3cc(F)cc(c23)N[C@@H]1c1ccc(F)cc1 + CCN1C(C(=O)NC23CCC(C(=O)O)(CC2)CC3)C(c2cccc(Cl)c2F)C2(C(=O)Nc3cc(Cl)ccc32)C12CCCCC2
IC50 (second compound 0.00949 µM): > 100 nM
IC50 (second compound 0.03 µM): > 100 nM
IC50 (second compound 0.0949 µM): 1.99 nM
IC50 (second compound 0.3 µM): < 0.316 nM
IC50 (second compound 0.949 µM): < 0.316 nM
IC50 (second compound 3 µM): < 0.316 nM
viability, T/C (second compound 0.00949 µM, first compound 0.000316 µM): 121%
viability, T/C (second compound 0.00949 µM, first compound 0.001 µM): 98.8%
viability, T/C [1]: 116%
viability, T/C [2]: 73.1%
viability, T/C [3]: 92.4%
viability, T/C [4]: 67%
viability, T/C (second compound 0.03 µM, first compound 0.000316 µM): 67.4%
viability, T/C (second compound 0.03 µM, first compound 0.001 µM): 96.7%
viability, T/C [5]: 75.8%
viability, T/C [6]: 77.6%
viability, T/C [7]: 55.1%
viability, T/C [8]: 51%
viability, T/C (second compound 0.0949 µM, first compound 0.000316 µM): 51.9%
viability, T/C (second compound 0.0949 µM, first compound 0.001 µM): 56.7%
viability, T/C [9]: 52.3%
viability, T/C [10]: 38.8%
viability, T/C [11]: 37.7%
viability, T/C [12]: 37%
viability, T/C (second compound 0.3 µM, first compound 0.000316 µM): 35.9%
viability, T/C (second compound 0.3 µM, first compound 0.001 µM): 29.8%
viability, T/C [13]: 29.7%
viability, T/C [14]: 32.9%
viability, T/C [15]: 26.1%
viability, T/C [16]: 29.1%
viability, T/C (second compound 0.949 µM, first compound 0.000316 µM): 21.5%
viability, T/C (second compound 0.949 µM, first compound 0.001 µM): 23.1%
viability, T/C [17]: 16.4%
viability, T/C [18]: 15.9%
viability, T/C [19]: 20.8%
viability, T/C [20]: 18.4%
viability, T/C (second compound 3 µM, first compound 0.000316 µM): 15.6%
viability, T/C (second compound 3 µM, first compound 0.001 µM): 17.2%
viability, T/C [21]: 15.5%
viability, T/C [22]: 13.1%
viability, T/C [23]: 13.9%
viability, T/C [24]: 14.6%

COc1c(OCCCN2CCOCC2)ccc2c3n(c(=NC(=O)c4cnc(N)nc4)nc12)CCN3 + CCN1C(C(=O)NC23CCC(C(=O)O)(CC2)CC3)C(c2cccc(Cl)c2F)C2(C(=O)Nc3cc(Cl)ccc32)C12CCCCC2
IC50 (second compound 0.00949 µM): 48.4 nM
IC50 (second compound 0.03 µM): 42.4 nM
IC50 (second compound 0.0949 µM): < 3.16 nM
IC50 (second compound 0.3 µM): < 3.16 nM
IC50 (second compound 0.949 µM): < 3.16 nM
IC50 (second compound 3 µM): < 3.16 nM
viability, T/C [1]: 98.8%
viability, T/C [2]: 70%
viability, T/C [3]: 54.6%
viability, T/C [4]: 49%
viability, T/C (second compound 0.00949 µM, first compound 0.316 µM): 14.4%
viability, T/C (second compound 0.00949 µM, first compound 1 µM): 9.39%
viability, T/C [5]: 78.7%
viability, T/C [6]: 77.8%
viability, T/C [7]: 56.1%
viability, T/C [8]: 29%
viability, T/C (second compound 0.03 µM, first compound 0.316 µM): 7.5%
viability, T/C (second compound 0.03 µM, first compound 1 µM): 9%
viability, T/C [9]: 47.8%
viability, T/C [10]: 50.3%
viability, T/C [11]: 36.6%
viability, T/C [12]: 18.4%
viability, T/C (second compound 0.0949 µM, first compound 0.316 µM): 8.59%
viability, T/C (second compound 0.0949 µM, first compound 1 µM): 8.82%
viability, T/C [13]: 26.4%
viability, T/C [14]: 21.5%
viability, T/C [15]: 12.6%
viability, T/C [16]: 4.54%
viability, T/C (second compound 0.3 µM, first compound 0.316 µM): 7.49%
viability, T/C (second compound 0.3 µM, first compound 1 µM): 8.96%
viability, T/C [17]: 17.9%
viability, T/C [18]: 10.1%
viability, T/C [19]: 4.6%
viability, T/C [20]: 6.32%
viability, T/C (second compound 0.949 µM, first compound 0.316 µM): 8.83%
viability, T/C (second compound 0.949 µM, first compound 1 µM): 8.95%
viability, T/C [21]: 9.35%
viability, T/C [22]: 5.25%
viability, T/C [23]: 6.94%
viability, T/C [24]: 6.59%
viability, T/C (second compound 3 µM, first compound 0.316 µM): 9.64%
viability, T/C (second compound 3 µM, first compound 1 µM): 10%

Reference: PubChem BioAssay AID1963445 (Molecular Pharmacology Branch, DTP, NCI, 2024)
